The source of these data is ChEMBL document CHEMBL1201862, “PubChem BioAssay data set” (2004).

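Where inhibition never reached the appropriate level, the endpoint shown equals the highest concentration tested. Otherwise, values were interpolated linearly from a five-concentration, 48-hour dose response in 96-well plates. GI50: concentration for 50% inhibition of growth.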 Activity calls are given as the source filed them. No stated cut-off is given here; in the data, active = GI50 up to about 1.1 µM and inactive = higher.

Test systems include IGROV-1; SW-620; HCT-15; OVCAR-5; LOX IMVI; MDA-N; HCT-116; COLO 205; HT-29; SK-MEL-2; M14; SK-MEL-28; HOP-62; UO-31; KM12; SK-MEL-5; HL-60; K562; A549; SF-539.
What all share (assay): NCI anticancer screen, dose series, 48 h

As to `Nc1nc(Cl)nc2c1ncn2C1CCC(CO)O1` (centres undefined), the GI50 in the experiment on IGROV-1 is > 100 µM (inactive); with SW-620, > 100 µM (inactive); in the experiment on HCT-15, greater than 100 µM; with OVCAR-5, > 100 µM (inactive); in the experiment on LOX IMVI it was > 100 µM (inactive); in the experiment with MDA-N, > 100 µM (inactive). The GI50 in the experiment on HCT-116, with COLO 205, in the experiment with HT-29, with SK-MEL-2, in the experiment with M14 and with SK-MEL-28 was > 100 µM (inactive) throughout. Also, the GI50 with HOP-62, in the experiment on UO-31, with KM12 and with SK-MEL-5 was > 100 µM (inactive) throughout.
Turning to `CC(C)(C)[Si](C)(C)OCC1OC(n2cnc3c(N)ncnc32)CC1O` (centres undefined), the GI50 is 76.6 µM (inactive) with IGROV-1; > 100 µM (inactive) with SW-620; 81.8 µM with HCT-15; 60.8 µM (inactive) in the experiment with OVCAR-5; 20 µM (inactive) in the experiment with HL-60; > 100 µM (inactive) in the experiment on LOX IMVI. Besides, the GI50 with MDA-N was > 100 µM (inactive); with HCT-116 it was > 100 µM (inactive); with COLO 205 it was 91.6 µM (inactive); in the experiment with K562, 21.8 µM (inactive); in the experiment on HT-29, > 100 µM (inactive); in the experiment on SK-MEL-2 it was 56.1 µM (inactive). In addition, the GI50 in the experiment with M14 is 44.2 µM (inactive); with SK-MEL-28, > 100 µM (inactive); in the experiment with HOP-62, 92.7 µM (inactive); in the experiment on UO-31, 13 µM (inactive); in the experiment with KM12, 39.6 µM (inactive); with SK-MEL-5 it was 35.6 µM (inactive).
Consider `[O-][n+]1c2c([n+]([O-])c3ccccc31)-c1cccc3cccc-2c13`, for which the GI50 in the experiment on A549 was > 100 µM (inactive); in the experiment on SW-620, > 100 µM (inactive); with HCT-15, greater than 100 µM; in the experiment with HL-60, > 100 µM (inactive); in the experiment on LOX IMVI it was 63 µM (inactive); in the experiment on MDA-N it was > 100 µM (inactive). Moreover, the GI50 was > 100 µM (inactive) with HCT-116; > 100 µM (inactive) in the experiment with COLO 205; > 100 µM (inactive) with K562; > 100 µM (inactive) in the experiment on HT-29; 48.1 µM (inactive) in the experiment on M14; 43 µM (inactive) with UO-31. The GI50 in the experiment with KM12 and with SK-MEL-5 was > 100 µM (inactive) each time.
For the molecule `COc1cc2c(cc1OC)CCN=C2`, the GI50 in the experiment with IGROV-1 was > 100 µM (inactive); in the experiment on SW-620, > 100 µM (inactive); in the experiment on HCT-15, greater than 100 µM; in the experiment on OVCAR-5, > 100 µM (inactive); in the experiment with HL-60, > 100 µM (inactive); in the experiment with LOX IMVI, > 100 µM (inactive). Further, the GI50 in the experiment on MDA-N, in the experiment on HCT-116, with COLO 205, in the experiment on HT-29, in the experiment with SK-MEL-2 and with M14 was > 100 µM (inactive) throughout. Besides, the GI50 in the experiment on SK-MEL-28, in the experiment with HOP-62, with UO-31, in the experiment with KM12 and in the experiment on SK-MEL-5 was > 100 µM (inactive) in each case.
Regarding `O=C(O)C12CCCC(CCC1)C2`, the GI50 in the experiment with IGROV-1 is > 100 µM (inactive); in the experiment on A549 it was > 100 µM (inactive); in the experiment with SW-620 it was > 100 µM (inactive); with HCT-15 it was greater than 100 µM; in the experiment on OVCAR-5, > 100 µM (inactive); in the experiment on HL-60, > 100 µM (inactive). Besides, the GI50 in the experiment with LOX IMVI, with HCT-116, with COLO 205, in the experiment with K562, in the experiment with HT-29 and with SK-MEL-2 was > 100 µM (inactive) each time. The GI50 in the experiment on SF-539, in the experiment on M14, with SK-MEL-28, in the experiment with HOP-62, with UO-31 and with KM12 was > 100 µM (inactive) throughout. Also, in the experiment on SK-MEL-5, the GI50 is > 100 µM (inactive).
